Data from patent US9688722B2, “Substrates and inhibitors of prolyl oligopeptidase and methods of use” (The Board of Regents of the University of Oklahoma, priority 2012, dated 2017).
“Also recorded” adds a separate entry of the source. Read-outs that look alike come from different tables or passages of the source. Non-standard residues stand in square brackets, D forms with d. Residues, ends and D or L forms follow the SMILES beside them. *: point of attachment. AFC = O=c1cc(C(F)(F)F)c2ccc(N*)cc2o1; Tic = O=C(O)[C@@H]1Cc2ccccc2CN1; AMC = Cc1cc(=O)oc2cc(N*)ccc12; Cbz = O=C(OCc1ccccc1)*; AEEA = NCCOCCOCC(=O)O

Columns and labels:
APCE/FAP [1] = target: T1, APCE/FAP (Homo sapiens, UniProt Q12884); assay: Cleavage kinetics of fluorescent substrates by APCE/FAP; assay type: biochemical
T1 construct: absence of an about 26-residue amino terminal peptide constituting the transmembrane and intracytosolic domains; from tissue
T1 sequence (Q12884 24-760 limits assumed): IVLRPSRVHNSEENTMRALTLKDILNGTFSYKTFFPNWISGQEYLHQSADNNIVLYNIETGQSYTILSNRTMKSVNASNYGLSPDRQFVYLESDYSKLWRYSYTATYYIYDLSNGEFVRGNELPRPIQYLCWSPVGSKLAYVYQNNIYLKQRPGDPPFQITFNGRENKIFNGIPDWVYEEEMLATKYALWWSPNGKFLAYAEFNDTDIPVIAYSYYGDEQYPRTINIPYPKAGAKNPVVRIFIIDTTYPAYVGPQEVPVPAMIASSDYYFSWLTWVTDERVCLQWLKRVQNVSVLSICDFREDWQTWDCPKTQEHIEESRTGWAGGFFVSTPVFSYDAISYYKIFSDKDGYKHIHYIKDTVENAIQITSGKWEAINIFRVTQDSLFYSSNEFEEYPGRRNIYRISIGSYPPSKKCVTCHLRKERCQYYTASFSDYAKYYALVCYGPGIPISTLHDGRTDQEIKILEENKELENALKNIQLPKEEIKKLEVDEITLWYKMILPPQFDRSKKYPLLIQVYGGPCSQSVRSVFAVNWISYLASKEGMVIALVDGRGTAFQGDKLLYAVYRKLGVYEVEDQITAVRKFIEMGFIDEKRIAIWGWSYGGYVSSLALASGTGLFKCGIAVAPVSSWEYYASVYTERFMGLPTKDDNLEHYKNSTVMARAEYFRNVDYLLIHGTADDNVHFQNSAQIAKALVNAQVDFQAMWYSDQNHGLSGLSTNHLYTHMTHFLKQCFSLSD
Description: (§1) APCE (^˜4 μg), DPPIV (^˜2 μg) or POP (^˜2 μg) was incubated in 25 mM sodium phosphate buffer, pH 7.5, containing 1.0 mM EDTA and 2% methanol in a total volume of 200 μl for 20 min at 22° C. Using Tic-Pro-AFC (10-300 μM for APCE, 5-200 μM for DPPIV, and 40-800 μM for POP), fluorescence was monitored with time at excitation/emission wavelengths of 400/508 nm, using a black-sided 96-well plate in a BIO-TEK FL600 fluorescence plate reader. For accurate assessment of kinetic parameters, saturating concentrations of substrate were used. For standard curves, dilutions of AFC (7-amino-4-trifluoromethylcoumarin) were prepared in the same assay buffer and corresponding fluorescence was measured.
(§2) Characterization of Tic-Pro-AFC as substrate: A new substrate, Tic-Pro-AFC, was used for assessing APCE/FAP, DPPIV and POP, each belonging to the same clade of prolyl-specific serine proteinases and each with activity towards unique substrates. […] Based on Ki, Km and kcat values in Tables 6 and 7, Tic-Pro-AFC was readily cleaved by each enzyme, with kcat/Km for APCE/FAP being slightly higher than POP and slightly lower than DPPIV. […] Thus, Tic-Pro-AFC was chosen as the substrate for comparing the potency and selectivity of the inhibitors towards APCE/FAP, DPPIV, or POP.

DPPIV [2] = target: T2, DPPIV (Homo sapiens, UniProt P27487); assay: Cleavage kinetics of fluorescent substrates by DPPIV; assay type: biochemical; settings: for cleavage of substrate by DPPIV: result in words
T2 sequence (P27487 whole entry, species assumed): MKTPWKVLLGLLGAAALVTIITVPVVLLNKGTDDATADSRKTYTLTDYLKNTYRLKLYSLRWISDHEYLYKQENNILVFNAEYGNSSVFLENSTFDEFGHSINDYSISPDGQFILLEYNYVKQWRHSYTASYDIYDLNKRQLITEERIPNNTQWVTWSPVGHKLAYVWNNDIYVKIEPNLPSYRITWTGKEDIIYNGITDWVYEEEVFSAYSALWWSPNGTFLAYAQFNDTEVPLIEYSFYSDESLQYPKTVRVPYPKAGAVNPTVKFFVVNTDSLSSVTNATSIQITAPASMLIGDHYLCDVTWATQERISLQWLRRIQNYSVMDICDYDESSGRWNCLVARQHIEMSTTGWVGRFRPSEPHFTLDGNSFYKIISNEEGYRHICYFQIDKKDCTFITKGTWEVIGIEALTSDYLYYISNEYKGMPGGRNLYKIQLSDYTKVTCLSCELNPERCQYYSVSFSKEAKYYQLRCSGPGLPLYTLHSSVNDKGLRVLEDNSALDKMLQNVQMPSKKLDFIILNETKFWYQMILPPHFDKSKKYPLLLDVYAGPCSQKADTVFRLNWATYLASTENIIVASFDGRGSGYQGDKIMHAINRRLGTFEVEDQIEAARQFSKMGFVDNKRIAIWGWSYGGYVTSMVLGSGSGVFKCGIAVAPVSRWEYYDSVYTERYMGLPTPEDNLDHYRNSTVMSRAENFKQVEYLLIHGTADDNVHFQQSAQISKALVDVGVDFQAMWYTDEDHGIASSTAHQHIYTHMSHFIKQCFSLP
Description: as §1, §2

Aqueous solubility = assay type: physicochemical; settings: result in words
Description: The specific POP inhibitor, J94 (acetyl-Lys-Leu-Arg-(L)boroPro (Ki<100 nM)); and the substrate, C95 (acetyl-Arg-AEEA-Gly-Pro-AMC), were designed, synthesized and characterized by us as previously reported. […] The inhibitors (J94 and M83) were dissolved in Hanks Balanced Salt Solution (HBSS; Gibco) at 1 mM and stored at −20° C. The substrate (C95) was dissolved in HBSS at 2.5 mM and stored at 4° C. […] Tic-Pro-AFC, a prolyl-specific fluorescent substrate, was supplied by Vantia (Southampton, England).

POP [3] = target: T3, POP (Homo sapiens, UniProt P48147); assay: Cleavage kinetics of fluorescent substrates by POP; assay type: biochemical; settings: for Km / kcat: substrate cleaved by POP
T3 sequence (P48147 1-710): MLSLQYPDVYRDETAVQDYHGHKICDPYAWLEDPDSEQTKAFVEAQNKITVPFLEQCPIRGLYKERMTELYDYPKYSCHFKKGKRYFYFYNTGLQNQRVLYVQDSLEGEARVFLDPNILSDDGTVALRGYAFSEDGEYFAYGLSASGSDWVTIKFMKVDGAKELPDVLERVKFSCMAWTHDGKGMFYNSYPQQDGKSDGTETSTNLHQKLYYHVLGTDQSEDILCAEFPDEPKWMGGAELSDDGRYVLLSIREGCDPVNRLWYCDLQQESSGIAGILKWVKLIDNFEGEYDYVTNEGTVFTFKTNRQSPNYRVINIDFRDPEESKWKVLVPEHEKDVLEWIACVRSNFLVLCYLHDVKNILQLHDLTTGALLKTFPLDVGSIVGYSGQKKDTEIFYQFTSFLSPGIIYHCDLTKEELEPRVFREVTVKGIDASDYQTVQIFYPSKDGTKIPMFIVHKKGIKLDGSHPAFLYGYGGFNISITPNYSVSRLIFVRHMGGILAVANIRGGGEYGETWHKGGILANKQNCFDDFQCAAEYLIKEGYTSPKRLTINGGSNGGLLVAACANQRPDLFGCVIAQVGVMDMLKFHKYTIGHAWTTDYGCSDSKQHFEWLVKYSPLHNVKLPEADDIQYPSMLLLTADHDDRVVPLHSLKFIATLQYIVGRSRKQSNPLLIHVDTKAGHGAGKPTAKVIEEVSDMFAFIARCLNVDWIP
Description: as §1, §2

APCE/FAP [4] = target: T1, APCE/FAP; assay: APCE/FAP inhibition constants (Ki) with Tic-Pro-AFC substrate; assay type: biochemical; settings: for Ki: substrate Tic-Pro-AFC
Description: (§3) For accurate assessment of kinetic parameters, saturating concentrations of substrate were used. For standard curves, dilutions of AFC (7-amino-4-trifluoromethylcoumarin) were prepared in the same assay buffer and corresponding fluorescence was measured.

DPPIV [5] = target: T2, DPPIV; assay: DPPIV inhibition constants (Ki) with Tic-Pro-AFC substrate; assay type: biochemical; settings: for Ki: substrate Tic-Pro-AFC; for Selectivity Ki (DPPIV) / Ki (APCE-FAP): ratio of Ki values
Description: as §3

POP [6] = target: T3, POP; assay: POP inhibition constants (Ki) with Tic-Pro-AFC substrate; assay type: biochemical; settings: for Selectivity Ki (POP) / Ki (APCE/FAP): ratio of Ki values; for Ki: substrate Tic-Pro-AFC
Description: as §3

HMVEC-d = assay: Tube formation assay of HMVEC-d on Matrigel; assay type: cell-based, human; settings: 50 μM inhibitor
Description: For tube formation assays, Matrigel™ (BD Biosciences, San Jose, Calif.) 80 μl was added to black-sided, clear bottom 96-well plates as above and allowed to gel at 37° C. for 30 minutes. Then 15,000 HMVEC-d in EC media without serum were added and allowed to settle for 1 hour. […] The reader was maintained at 37° C. and fluorescence was measured with time for 18 hours.

[7] = system: HCT116 human colon cancer xenografts; assay: HCT116 human colon cancer xenografts in immunodeficient mice; assay type: in vivo; settings: 28-day treatment period
DPPIV [8] = target: T2, DPPIV; settings: result in words; cited from earlier work
[9] = before cyclizing and losing inhibitory activity; cited from earlier work

## CC(=O)N[C@@H](CCCNC(=N)N)C(=O)NCCOCCOCC(=O)NCC(=O)N1CCC[C@H]1C(=O)Nc1ccc2c(C)cc(=O)oc2c1 [Compound C95, acetyl-Arg-AEEA-Gly-Pro-AMC] (Ac-R[AEEA]GP-{AMC})
APCE/FAP [1]; FAP and POP at equimolar concentrations
  relative rate of cleavage by FAP and POP: equivalent rates; also recorded: cleaved at equal rates by FAP or POP
DPPIV [2]
  cleavage of substrate by DPPIV: neither cleaved
Aqueous solubility
  solubility in aqueous buffers: soluble in aqueous buffers

## CC(=O)N[C@@H](CCCCN)C(=O)N[C@@H](CC(C)C)C(=O)N[C@@H](CCCNC(=N)N)C(=O)N1CCC[C@H]1C(=O)Nc1ccc2c(C)cc(=O)oc2c1 [Compound L96, acetyl-Lys-Leu-Arg-Pro-AMC] (Ac-KLRP-{AMC})
APCE/FAP [1]; result in words
  cleavage of substrate by APCE/FAP: Neither DPPIV nor APCE/FAP cleaved
DPPIV [2]
  cleavage of substrate by DPPIV: Neither DPPIV nor APCE/FAP cleaved
POP [3]
  Km: 30 ± 3 µM
  kcat: 2.4 ± 0.1 s⁻¹

## CC(=O)N[C@@H](CCCNC(=N)N)C(=O)NCCOCCOCC(=O)NCC(=O)N1CCC[C@H]1B(O)O [Ac-Arg-peg-Gly-L-boroPro]
APCE/FAP [4]
  Ki: 1.8 nM
DPPIV [5]
  Ki: 440 nM
POP [6]
  Selectivity Ki (POP) / Ki (APCE/FAP): 1.2
  Ki: 2.1 nM

## O=C(Nc1ccc2c(C(F)(F)F)cc(=O)oc2c1)[C@@H]1CCCN1C(=O)[C@@H]1Cc2ccccc2CN1 [Tic-Pro-AFC] (H-[Tic]-Pro-{AFC})
APCE/FAP [1]; substrate cleaved by APCE/FAP
  Km: 53 ± 5 µM
  kcat: 1.19 ± 0.11 s⁻¹
DPPIV [2]; substrate cleaved by DPPIV
  Km: 33 ± 2 µM
  kcat: 1.49 ± 0.12 s⁻¹
POP [3]
  Km: 161 ± 12 µM
  kcat: 0.76 ± 0.01 s⁻¹

## Cc1cc(=O)oc2cc(NC(=O)[C@@H]3CCCN3C(=O)CN)ccc12 [GP-AMC] (H-Gly-Pro-{AMC})
POP [3]; result in words
  cleavage of substrate by POP: not cleaved by POP

## Ac-Arg-peg-Gly-DL-boroPro
APCE/FAP [4]
  Ki: 3.1 nM
DPPIV [5]
  Selectivity Ki (DPPIV) / Ki (APCE-FAP): 371
  Ki: 1150 nM

## CC(=O)N[C@@H](CCCNC(=N)N)C(=O)NCCOCCOCC(=O)N[C@H](CC(=O)O)C(=O)N1CCC[C@H]1B(O)O [Ac-Arg-peg-D-Asp-L-boroPro]
APCE/FAP [4]
  Ki: 1380 nM
DPPIV [5]
  Selectivity Ki (DPPIV) / Ki (APCE-FAP): 5.2
  Ki: 7130 nM
POP [6]
  Selectivity Ki (POP) / Ki (APCE/FAP): 0.02
  Ki: 23.9 nM

## Cc1cc(=O)oc2cc(NC(=O)[C@@H]3CCCN3C(=O)CNC(=O)OCc3ccccc3)ccc12 [Z-GP-AMC, benzyloxycarbonyl (Z)-GP-AMC] (Cbz-Gly-Pro-{AMC})
DPPIV [2]
  cleavage of substrate by DPPIV: not cleaved by DPPIV

## CC(=O)N[C@@H](CCCCN)C(=O)N[C@@H](CC(C)C)C(=O)N[C@@H](CCCNC(=N)N)C(=O)N1CCC[C@H]1B(O)O [Compound J94, acetyl-Lys-Leu-Arg-(L)boroPro]
APCE/FAP [4]; result in words
  inhibition of FAP: none towards FAP; also recorded: no effect on FAP
DPPIV [5]; result in words
  inhibition of DPPIV: nor was it inhibited
POP [6]
  Ki: < 100 nM
HMVEC-d
  formation of capillary-like tubes: inhibited formation of capillary-like tubes; also recorded: abrogated the genesis of capillary-like tubes
[7]
  diminished cancer growth: ~75%
Aqueous solubility
  solubility in aqueous buffers: soluble in aqueous buffers

## Ac-Arg-peg-D-Ala-DL(75:25%)-boroPro
APCE/FAP [4]
  Ki: 18.3 nM

## CC(C)[C@H](N)C(=O)N1CCC[C@H]1B(O)O [Val-boroPro]
DPPIV [8]
  inhibition of DPPIV: also inhibit

## CC(=O)N[C@@H](CCCNC(=N)N)C(=O)NCCOCCOCC(=O)N[C@@H](CO)C(=O)NCC(=O)N1CCC[C@H]1B(O)O [Ac-Arg-peg-Ser-Gly-L-boroPro]
APCE/FAP [4]
  Ki: 2.7 nM
DPPIV [5]
  Ki: 861 nM
POP [6]
  Selectivity Ki (POP) / Ki (APCE/FAP): 1.1
  Ki: 2.9 nM

## Ac-Arg-peg-D-Ala-DL(25:75%)-boroPro
APCE/FAP [4]
  Ki: 7.7 nM

## CC(=O)N[C@@H](CCCNC(=N)N)C(=O)NCCOCCOCC(=O)N[C@H](C)C(=O)N1CCC[C@@H]1B(O)O (single isomer, unassigned) [Ac-Arg-peg-D-Ala-D-boroPro]
APCE/FAP [4]
  Ki: 189 nM
DPPIV [5]
  Ki: 20500 nM

## Ac-Arg-peg-D-Ala-DL(50:50%)-boroPro
APCE/FAP [4]
  Ki: 9.5 nM
DPPIV [5]
  Selectivity Ki (DPPIV) / Ki (APCE-FAP): 1176
  Ki: 11200 nM

## Ac-Arg-Gly-Gly-DL-boroPro
APCE/FAP [4]
  Ki: 22.9 nM
DPPIV [5]
  Selectivity Ki (DPPIV) / Ki (APCE-FAP): 14.9
  Ki: 341 nM

## CC(=O)N[C@@H](CCCNC(=N)N)C(=O)NCC(=O)NCC(=O)N1CCC[C@H]1B(O)O [Ac-Arg-Gly-Gly-L-boroPro]
POP [6]
  Selectivity Ki (POP) / Ki (APCE/FAP): 0.1
  Ki: 1.6 nM

## N[C@@H](CCC(=O)O)C(=O)N1CCC[C@H]1B(O)O [Glu-boroPro, glutamyl-proline boronic acid]
DPPIV [8]
  inhibition of DPPIV: also inhibits
[9]
  plasma half-life: exceptionally short
